The term pIC50 denotes −log10 of the IC50, conventionally taken in molar units. The term Vd denotes a proportionality between amount in the body and measured concentration, not a real space. As usually defined, the efflux ratio is the permeability from basolateral to apical divided by that in the opposite direction, in the common usage. By half-life is commonly meant the time needed for the level to fall by half in the phase considered. High values mean slow decline, low ones rapid decline. The bioavailability is dose-corrected exposure relative to a reference, in per cent. Read a high bioavailability as good availability. What is called clearance is a measure of how efficiently the substance is removed, as volume per time. Read a low clearance as a low capacity for elimination.

Structures are written as SMILES. pIC50: −log10 of the molar value. The source made the active and inactive calls.

For data set [1], the target named is T1, Serine/threonine-protein kinase TBK1 (Homo sapiens, UniProt Q9UHD2).
T1 sequence (Q9UHD2 whole entry): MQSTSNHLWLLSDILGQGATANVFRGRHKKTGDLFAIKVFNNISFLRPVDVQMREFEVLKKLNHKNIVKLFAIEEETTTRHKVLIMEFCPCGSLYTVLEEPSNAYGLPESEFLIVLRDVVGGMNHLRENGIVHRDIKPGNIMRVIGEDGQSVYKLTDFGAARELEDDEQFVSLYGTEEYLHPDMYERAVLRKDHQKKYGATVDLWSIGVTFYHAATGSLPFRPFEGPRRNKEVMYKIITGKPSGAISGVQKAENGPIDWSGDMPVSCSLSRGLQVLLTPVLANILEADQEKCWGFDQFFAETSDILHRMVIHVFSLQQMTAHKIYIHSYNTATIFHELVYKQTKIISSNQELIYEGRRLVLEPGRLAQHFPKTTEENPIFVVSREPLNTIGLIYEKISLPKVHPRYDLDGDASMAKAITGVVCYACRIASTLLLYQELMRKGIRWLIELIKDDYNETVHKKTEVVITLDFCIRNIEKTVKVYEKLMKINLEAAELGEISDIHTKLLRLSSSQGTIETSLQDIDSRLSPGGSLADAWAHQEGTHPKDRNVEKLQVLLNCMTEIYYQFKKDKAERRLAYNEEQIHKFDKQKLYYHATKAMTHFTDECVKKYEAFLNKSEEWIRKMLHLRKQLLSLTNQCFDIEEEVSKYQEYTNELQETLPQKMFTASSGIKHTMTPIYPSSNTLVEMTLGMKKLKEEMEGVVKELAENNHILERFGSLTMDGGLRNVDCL
Kind of data set: Inhibition of TBK1 by radiometry.

The target of data set [2] is Cyclin-dependent kinase 2 (Homo sapiens, UniProt P24941). The experiment in a line: Inhibition of CDK2.
Another data set deals with Aurora kinase B (Homo sapiens, UniProt Q96GD4). The experiment in a line: Inhibition of Aurora B.
Aurora kinase B, sequence (Q96GD4 whole entry): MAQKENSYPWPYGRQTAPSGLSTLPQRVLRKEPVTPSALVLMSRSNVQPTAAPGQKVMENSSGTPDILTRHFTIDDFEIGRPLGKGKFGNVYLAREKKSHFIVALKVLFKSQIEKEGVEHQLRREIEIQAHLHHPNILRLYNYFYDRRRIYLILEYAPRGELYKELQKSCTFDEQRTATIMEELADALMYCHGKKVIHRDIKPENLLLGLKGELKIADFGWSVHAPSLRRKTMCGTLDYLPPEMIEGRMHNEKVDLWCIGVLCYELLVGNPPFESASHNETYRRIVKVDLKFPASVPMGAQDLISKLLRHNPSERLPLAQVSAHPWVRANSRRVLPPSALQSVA
Data set [3] concerns the target T2, Serine/threonine-protein kinase TBK1 (Mus musculus, UniProt Q9WUN2).
T2 sequence (Q9WUN2 whole entry): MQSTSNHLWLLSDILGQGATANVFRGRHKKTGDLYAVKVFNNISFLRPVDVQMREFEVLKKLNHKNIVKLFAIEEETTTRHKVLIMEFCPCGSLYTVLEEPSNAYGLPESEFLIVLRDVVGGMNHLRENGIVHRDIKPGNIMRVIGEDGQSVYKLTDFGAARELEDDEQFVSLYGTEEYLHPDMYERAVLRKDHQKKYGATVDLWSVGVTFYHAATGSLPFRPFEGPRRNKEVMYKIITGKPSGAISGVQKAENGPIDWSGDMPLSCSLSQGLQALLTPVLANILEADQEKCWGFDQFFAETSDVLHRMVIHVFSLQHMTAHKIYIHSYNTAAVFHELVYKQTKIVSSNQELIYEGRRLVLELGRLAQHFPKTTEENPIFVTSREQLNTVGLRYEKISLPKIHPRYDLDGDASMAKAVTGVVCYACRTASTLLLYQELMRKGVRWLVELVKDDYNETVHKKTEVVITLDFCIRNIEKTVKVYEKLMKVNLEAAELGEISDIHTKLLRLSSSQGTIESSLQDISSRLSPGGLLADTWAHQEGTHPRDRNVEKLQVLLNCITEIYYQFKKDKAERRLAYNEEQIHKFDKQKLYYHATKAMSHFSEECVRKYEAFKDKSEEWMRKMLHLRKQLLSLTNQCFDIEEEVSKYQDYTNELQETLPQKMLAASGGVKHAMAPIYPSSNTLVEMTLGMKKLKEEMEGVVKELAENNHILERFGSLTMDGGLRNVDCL
Kind of data set: Inhibition of TBK1-mediated RANTES release in LPS-stimulated mouse RAW264.7 cells compound incubated for 30 mins prior LPS challenge measured after 6 hrs by ELISA. It counts as cell-based. The following applies: read-out: IC50. (In general: ELISA stands for enzyme-linked immunosorbent assay.)

In data set [4] the test system is Mus musculus. Kind of data set: Antiinflammatory activity in mouse assessed as inhibition of LPS-induced IFN-beta production at 15 mg/kg, ip administered 30 mins prior LPS challenge measured 1 hr post challenge by ELISA. The format is functional, organism-based. Further details: dose 15 mg/kg.
Data set [5] in a line: Volume of distribution in CD-1 mouse at 1 mg/kg, iv. The format is ADME, organism-based. Details: dose 1 mg/kg, route intravenous. The following applies: in vivo.
Data set [6] can be described thus: Metabolic stability in human liver microsomes assessed as compound turnover after 40 mins. It counts as ADME, Microsome. The following applies: read-out: Drug metabolism.
The nature of data set [7]: Inhibition of VEGFR.
The nature of data set [8]: Metabolic stability in mouse liver microsomes assessed as compound turnover after 30 mins. It counts as ADME, Microsome. To be noted: read-out: Drug metabolism. On the technique in general: Liver microsomes are a subcellular fraction often used to study metabolism.
Data set [9] in a line: Inhibition of AMPK.
Data set [10] has as its target MAP kinase-interacting serine/threonine-protein kinase 1 (Homo sapiens, UniProt Q9BUB5). Kind of data set: Inhibition of MNK1.
The nature of data set [11]: Efflux ratio of permeability from basolateral to apical side to apical to basolateral side in human Caco2 cells. The following applies: Caco-2. The format is ADME, cell-based. (In general: Passage across Caco-2 layers is used to estimate intestinal permeability.)
Data set [12] can be described thus: Half life in CD-1 mouse at 5 mg/kg, po. It counts as ADME, organism-based. Details: dose 5 mg/kg, route oral. To be noted: in vivo.
Data set [13] is described as follows: Oral bioavailability in CD-1 mouse at 5 mg/kg. It counts as ADME, organism-based. To be noted: in vivo.
Data set [14] has as its target MAP/microtubule affinity-regulating kinase 3 (Homo sapiens, UniProt P27448). Kind of data set: Inhibition of MARK3.
Data set [15] deals with T3, Serine/threonine-protein kinase BRSK2 (Homo sapiens, UniProt Q8IWQ3).
T3 sequence (Q8IWQ3 whole entry): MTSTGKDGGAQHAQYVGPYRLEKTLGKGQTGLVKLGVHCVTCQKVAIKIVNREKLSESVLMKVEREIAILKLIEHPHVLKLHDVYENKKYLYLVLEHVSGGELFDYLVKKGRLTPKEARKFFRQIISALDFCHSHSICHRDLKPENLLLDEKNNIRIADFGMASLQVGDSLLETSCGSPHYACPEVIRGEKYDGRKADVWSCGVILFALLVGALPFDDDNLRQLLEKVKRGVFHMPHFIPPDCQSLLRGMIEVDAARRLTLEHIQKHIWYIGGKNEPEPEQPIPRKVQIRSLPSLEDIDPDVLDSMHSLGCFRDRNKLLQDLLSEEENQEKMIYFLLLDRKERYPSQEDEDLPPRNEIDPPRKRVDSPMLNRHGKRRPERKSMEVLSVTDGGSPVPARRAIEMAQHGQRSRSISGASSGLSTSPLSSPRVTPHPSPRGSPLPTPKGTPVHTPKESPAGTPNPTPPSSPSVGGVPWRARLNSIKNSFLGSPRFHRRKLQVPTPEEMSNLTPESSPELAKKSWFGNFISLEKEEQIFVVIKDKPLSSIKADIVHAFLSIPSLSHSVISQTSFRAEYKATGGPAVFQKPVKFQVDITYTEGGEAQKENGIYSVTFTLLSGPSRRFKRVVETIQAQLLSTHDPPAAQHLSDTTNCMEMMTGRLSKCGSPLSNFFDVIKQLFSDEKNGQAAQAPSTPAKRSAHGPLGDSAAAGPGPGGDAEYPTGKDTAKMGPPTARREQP
The experiment in a line: Inhibition of BRSK2.

Data set [16] in a line: Clearance in CD-1 mouse at 1 mg/kg, iv. It counts as ADME, organism-based. Details: dose 1 mg/kg, route intravenous. To be noted: in vivo.
Data set [17] can be described thus: Permeability from apical to basolateral side of human Caco2 cells. The following applies: Caco-2, read-out: permeability. The format is ADME, cell-based.
Data set [18] relates to Mus musculus. Kind of data set: Toxicity in mouse at >= 20 mg/kg, ip. Details: dose 20 mg/kg, route intraperitoneal. The following applies: in vivo. It counts as organism-based.
A short description of data set [19]: Half life in CD-1 mouse at 1 mg/kg, iv. It counts as ADME, organism-based. Further details: dose 1 mg/kg, route intravenous. The following applies: in vivo.
Data set [20] deals with T4, Inhibitor of nuclear factor kappa-B kinase subunit epsilon (Homo sapiens, UniProt Q14164).
T4 sequence (Q14164 whole entry): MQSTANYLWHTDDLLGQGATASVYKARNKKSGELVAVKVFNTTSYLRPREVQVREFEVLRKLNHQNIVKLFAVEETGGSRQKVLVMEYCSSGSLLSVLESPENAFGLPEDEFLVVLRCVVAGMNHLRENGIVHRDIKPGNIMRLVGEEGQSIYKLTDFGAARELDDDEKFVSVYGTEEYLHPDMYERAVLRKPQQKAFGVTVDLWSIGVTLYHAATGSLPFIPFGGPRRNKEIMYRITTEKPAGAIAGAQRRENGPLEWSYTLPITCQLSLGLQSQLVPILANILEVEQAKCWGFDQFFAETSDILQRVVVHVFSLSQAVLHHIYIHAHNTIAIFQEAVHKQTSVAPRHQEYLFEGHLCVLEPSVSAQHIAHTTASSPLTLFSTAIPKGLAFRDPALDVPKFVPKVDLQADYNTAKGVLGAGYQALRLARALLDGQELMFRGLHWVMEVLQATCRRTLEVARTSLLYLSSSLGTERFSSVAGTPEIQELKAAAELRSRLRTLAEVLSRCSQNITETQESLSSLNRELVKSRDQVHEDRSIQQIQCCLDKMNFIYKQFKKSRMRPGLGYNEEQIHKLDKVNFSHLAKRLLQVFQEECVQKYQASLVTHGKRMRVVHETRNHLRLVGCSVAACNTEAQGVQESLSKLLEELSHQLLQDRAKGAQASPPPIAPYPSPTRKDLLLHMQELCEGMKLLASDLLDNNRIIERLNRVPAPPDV
Kind of data set: Inhibition of IKKepsilon.

MAP/microtubule affinity-regulating kinase 3, sequence (P27448 whole entry): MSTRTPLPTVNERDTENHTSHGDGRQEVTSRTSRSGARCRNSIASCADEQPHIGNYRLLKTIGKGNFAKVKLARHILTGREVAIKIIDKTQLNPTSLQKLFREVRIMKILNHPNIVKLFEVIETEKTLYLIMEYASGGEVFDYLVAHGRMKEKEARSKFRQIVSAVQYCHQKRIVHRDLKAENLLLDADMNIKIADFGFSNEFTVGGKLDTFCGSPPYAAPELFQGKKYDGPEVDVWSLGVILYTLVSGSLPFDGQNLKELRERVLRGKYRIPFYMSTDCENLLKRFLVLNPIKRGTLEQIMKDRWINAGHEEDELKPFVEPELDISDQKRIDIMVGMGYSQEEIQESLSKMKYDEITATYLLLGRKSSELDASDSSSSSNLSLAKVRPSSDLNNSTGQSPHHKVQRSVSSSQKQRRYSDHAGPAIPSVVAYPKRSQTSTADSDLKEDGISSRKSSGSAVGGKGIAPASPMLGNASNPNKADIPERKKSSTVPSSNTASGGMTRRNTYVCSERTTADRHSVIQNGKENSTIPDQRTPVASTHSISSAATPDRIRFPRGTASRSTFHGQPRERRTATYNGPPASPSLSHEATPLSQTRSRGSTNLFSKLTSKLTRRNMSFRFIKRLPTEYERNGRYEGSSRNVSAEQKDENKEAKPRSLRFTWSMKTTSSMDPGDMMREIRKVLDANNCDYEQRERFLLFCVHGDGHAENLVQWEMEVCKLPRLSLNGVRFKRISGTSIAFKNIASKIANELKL
MAP kinase-interacting serine/threonine-protein kinase 1, sequence (Q9BUB5 whole entry): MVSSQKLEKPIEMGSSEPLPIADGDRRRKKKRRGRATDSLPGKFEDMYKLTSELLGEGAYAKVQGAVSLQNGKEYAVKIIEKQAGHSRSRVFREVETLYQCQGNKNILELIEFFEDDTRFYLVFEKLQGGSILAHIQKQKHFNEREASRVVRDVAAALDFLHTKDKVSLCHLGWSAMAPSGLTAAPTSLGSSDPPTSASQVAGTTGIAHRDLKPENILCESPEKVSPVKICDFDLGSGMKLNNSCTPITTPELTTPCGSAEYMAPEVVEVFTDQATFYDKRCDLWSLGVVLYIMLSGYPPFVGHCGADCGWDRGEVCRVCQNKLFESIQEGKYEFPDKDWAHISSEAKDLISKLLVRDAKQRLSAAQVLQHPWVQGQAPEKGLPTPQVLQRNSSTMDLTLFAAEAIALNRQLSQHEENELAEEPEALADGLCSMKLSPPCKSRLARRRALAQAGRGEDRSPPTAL

Regarding `Cn1cc(Nc2ncc(C3CC3)c(NCCCNC(=O)C3CCC3)n2)cn1`, the negative logarithm of the IC50 (pIC50) in data set [1] is 8.10; in data set [2] it was 6.96; against Aurora kinase B it was 6.72; in data set [3] it was 6.77; in data set [7], 5.85; in data set [9] it was 5.74. In addition, the pIC50 is 4.70 in data set [10], 7.70 in data set [14], 5.43 in [15] and 7.00 in data set [20]. Also, the inhibition result with Mus musculus [4] is “Active”. In data set [5], this compound came in with a distribution volume (Vd) of 1.79 L/kg. In addition, the metabolised at 40 min in [6] came to 0%. In addition, in data set [8], the metabolised at 0.5 h worked out at 21%. In addition, in [11], the efflux ratio is 8. The half-life in data set [12] was 75 min; in data set [19], 27 min. Also, in data set [13], the bioavailability stood at 25%. Besides, the clearance in data set [16] was 79 mL/min/kg. The Papp A→B in data set [17] turned out to be 7.4 ×10⁻⁶ cm/s. Besides, in the data set with Mus musculus [18], the Activity result is reported as “Toxic”.
